The values that follow come from patent US11136351B2 (priority 2016, dated 2021).

Residues, ends and D or L forms follow the SMILES beside them.

For this data set the following is noted: pH 1.2.

Consider `N=C(N)NCCC[C@@H]1NC(=O)[C@@H]2CCCN2C(=O)[C@H](CC(=O)O)NC(=O)[C@H](CO)NC(=O)[C@H](CO)NC(=O)[C@@H](NC(=O)CN)CSSC[C@@H](C(N)=O)NC1=O` [[Ser^3]Vc1.1(1-8)] (HELM PEPTIDE1{G.C.S.S.D.P.R.C.[am]}$PEPTIDE1,PEPTIDE1,2:R3-8:R3$$$V2.0), for which the “stability in simulated gastric fluid” value is listed as “good stability”.
